{"source": "patent US4797421A", "about": "“Antioxidant comprising proanthocyanidin as principal component” (Kikkoman Corporation, priority 1987, dated 1989)", "assay": "Amount of lipid peroxide in salad oil heated at 180° C. with oxygen bubbling (Test Example 1, Table 1)", "parameters": "Amount of lipid peroxide: unit not given here", "conditions": "0.2 mg/ml in salad oil, oxygen 2 ml/sec, 40 minutes; for Amount of lipid peroxide: no additive 65.2, non-treated 10.1", "description": "A commercially sold salad oil (a product by Showa Sangyo Co., Ltd.) was pipetted 5 ml each into test tubes. Then various kinds of proanthocyanidins shown in Table 1 below were added thereto a concentration of 0.2 mg/ml and dissolved by stirring. The test tubes were kept in an 180° C. thermostatic oil bath and oxygen gas was bubbled into them at a rate of 2 ml/sec. 40 mintues thereafter, the amount of lipid peroxide in the salad oil was measured by the method shown in Yagi's Vitamins, Vol. 49, pp. 403-405. Used as controls were said salad oil added with no proanthocyanidin (control I) and those added with a commercial catechin, a gallocatechin obtained as a by-product in Preparation Example 5 and an epigallocatechin gallate, which are the monomers forming a structural unit of proanthocyanidins (control II). These control salad oil samples were similarly treated and the amount of lipid peroxide was similarly measured, the results being shown in Table 1."}
{"compound": "Oc1cc(O)c2c(c1)O[C@H](c1ccc(O)c(O)c1)[C@@H](O)C2", "note": "[Commercial d-catechin, d-catechin, reference compound]", "values": [{"measurement": "Amount of lipid peroxide", "value": 54.7}]}
{"compound": "O=C(O[C@@H]1Cc2c(O)cc(O)cc2O[C@@H]1c1cc(O)c(O)c(O)c1)c1cc(O)c(O)c(O)c1", "note": "[Epigallocatechin gallate, reference compound]", "values": [{"measurement": "Lipid peroxide rise inhibition rate", "value": 35, "unit": "%"}, {"measurement": "Amount of lipid peroxide", "value": 45.0}]}
{"compound": "Oc1cc(O)c2c(c1)OC1(c3ccc(O)c(O)c3)Oc3cc(O)c4c(c3C2C1O)OC(c1ccc(O)c(O)c1)C(O)C4", "note": "(centres unmarked) [Dimeric procyanidin A-2, procyanidin A-2]", "values": [{"measurement": "Amount of lipid peroxide", "value": 25.0}]}
{"compound": "Oc1cc(O)c2c(c1)OC(c1ccc(O)c(O)c1)C(O)C2c1c(O)cc(O)c2c1OC(c1ccc(O)c(O)c1)C(O)C2c1c(O)cc(O)c2c1OC(c1ccc(O)c(O)c1)C(O)C2c1c(O)cc(O)c2c1OC(c1ccc(O)c(O)c1)C(O)C2", "note": "(centres unmarked) [Tetrameric procyanidin]", "values": [{"measurement": "Lipid peroxide rise inhibition rate", "value": 62, "unit": "%"}, {"measurement": "Amount of lipid peroxide", "value": 29.1}]}
{"compound": "O=C(OC1Cc2c(O)cc(O)c(C3c4c(O)cc(O)cc4OC(c4cc(O)c(O)c(O)c4)C3OC(=O)c3cc(O)c(O)c(O)c3)c2OC1c1cc(O)c(O)c(O)c1)c1cc(O)c(O)c(O)c1", "note": "(centres unmarked) [prodelphinidin B-2 gallic acid diester]", "values": [{"measurement": "Lipid peroxide rise inhibition rate", "value": 100, "unit": "%"}, {"measurement": "Amount of lipid peroxide", "value": 10.1}]}
{"compound": "O=C(OC1Cc2c(O)cc(O)c(C3c4c(O)cc(O)cc4OC(c4ccc(O)c(O)c4)C3OC(=O)c3cc(O)c(O)c(O)c3)c2OC1c1ccc(O)c(O)c1)c1cc(O)c(O)c(O)c1", "note": "(centres unmarked) [procyanidin B-2 gallic acid diester]", "values": [{"measurement": "Lipid peroxide rise inhibition rate", "value": 98, "unit": "%"}, {"measurement": "Amount of lipid peroxide", "value": 10.5}]}
{"compound": "Oc1cc(O)c2c(c1)OC(c1cc(O)c(O)c(O)c1)C(O)C2c1c(O)cc(O)c2c1OC(c1cc(O)c(O)c(O)c1)C(O)C2c1c(O)cc(O)c2c1OC(c1ccc(O)c(O)c1)C(O)C2", "note": "(centres unmarked) [Trimeric prodelphinidin]", "values": [{"measurement": "Lipid peroxide rise inhibition rate", "value": 74, "unit": "%"}, {"measurement": "Amount of lipid peroxide", "value": 22.9}]}
{"compound": "Oc1cc(O)c2c(c1)O[C@H](c1cc(O)c(O)c(O)c1)[C@@H](O)[C@@H]2c1c(O)cc(O)c2c1O[C@H](c1cc(O)c(O)c(O)c1)[C@@H](O)C2", "note": "[Dimeric prodelphinidin B-3, prodelphinidin B-3]", "values": [{"measurement": "Lipid peroxide rise inhibition rate", "value": 85, "unit": "%"}, {"measurement": "Amount of lipid peroxide", "value": 17.2}]}
{"compound": "Oc1cc(O)c2c(c1)O[C@H](c1cc(O)c(O)c(O)c1)[C@@H](O)C2", "note": "[Gallocatechin, gallocatechin, reference compound]", "values": [{"measurement": "Lipid peroxide rise inhibition rate", "value": 32, "unit": "%"}, {"measurement": "Amount of lipid peroxide", "value": 44.7}]}
{"compound": "Oc1cc(O)c2c(c1)OC(c1ccc(O)c(O)c1)C(O)C2c1c(O)cc(O)c2c1OC(c1ccc(O)c(O)c1)C(O)C2", "note": "(centres unmarked) [Dimeric procyanidin B-2, procyanidin B-2]", "values": [{"measurement": "Amount of lipid peroxide", "value": 22.4}]}
